Experimental data: US10905691B2, “Use of triazolo(4,5-d)pyrimidine derivatives for prevention and treatment of bacterial infection” (Universite de Liege, priority 2016, dated 2021)

Legend:
Type in all cases: cell-based
[1] = test system: Escherichia coli (ATCC 8739); assay: MIC determination with or without C12(ω7)Kβ12 (OAK); conditions: for MIC: Escherichia coli, ATCC8739, in presence of 5 μg/ml OAK; for inhibition of Escherichia coli growth: taken alone at a concentration of 10 μg/ml
From the text: (§1) Determination of Minimal Inhibitory Concentration (MIC) and Minimal Bactericidal Concentration (MBC) of Triafluocyl (purchased from Cayman Chemical, Item No. 15425) in presence of C12(ω7)Kβ12 (purchased from biomers.net, Germany) against Escherichia coli (ATCC 8739). The C12(ω7)Kβ12 was synthesized by solid-phase method as described by I. Radzishevsky in Antimicrobial Agents and Chemotherapy, May 2007 (1753-1759) (https://aac.asm.org/content/51/5/1753).
(§2) A single colony of Escherichia coli grown on a Luria-Bertani (LB) agar plate is resuspended and cultured in LB medium overnight (O/N) in aerobic conditions (37° C. with 220 rpm shaking in the New Brunswick Innova 4330 Shaker incubator). An aliquot of 100 μl such overnight Escherichia coli culture is diluted 1:50 in 5 ml Mueller-Hintom broth (MHB) and is incubated in aerobic conditions during 1 hour 30 minutes (OD=0.08-0.1) to reach the exponential phase of their growth curve. An inoculum of the exponentially growing Escherichia coli, corresponding to around 1×10^6 c.f.u./ml is then incubated in presence or absence of different concentrations of Triafluocyl in 2% DMSO with or without OAK for 24 hr in aerobic conditions (37° C. with 220 rpm shaking in the New Brunswick Innova 4330 Shaker incubator). Growth of Escherichia coli in each condition depicted in FIG. 13A is evaluated by reading the Optical Density of each culture at 600 nm (OD600) in a spectrophotometer (Victor-3, Perkin Elmer).
as §1, with “Fluometacyl (prepared according to WO 99/05143)” for “Triafluocyl (purchased from Cayman Chemical, Item No. 15425)”
as §2, with “An inoculum of the exponentially growing Escherichia coli, corresponding to around 1×10^6 c.f.u./ml is then incubated in presence or absence of different concentrations of Triafluocyl in 2% DMSO with or without OAK for 24 hr in aerobic conditions (37° C. with 220 rpm shaking in the New Brunswick Innova 4330 Shaker incubator).” left out, “14A” for “13A”

S. aureus ATCC 25904 = assay: MIC determination (EUCAST, Mueller-Hinton broth); conditions: Staphylococcus aureus, ATCC25904
Protocol: (§3) Further experiments were conducted using different strains of S. aureus, as clinically relevant Gram-positive bacterial strains: ATCC 25904, ATCC 6538, methilcillin-resistant S. aureus (MRSA) ATCC BAA-1556, Glycopeptide intermediate-resistant (GISA) S. aureus Mu-50 (ATCC 700695) in order to determine the Minimal Inhibitory Concentration (MIC) which is the minimal concentration required to prevent bacterial growth; the Minimal Bactericidal Concentration (MBC) which determines the lowest concentration at which an antimicrobial agent kill a particular microorganism and a Minimum Duration for killing 99.9% bacteria (MDK99.9) which is a tolerance metric according to the EUCAST.
(§4) MIC determination: A single colony selected from the different strains of S. aureus is resuspended and cultured in the appropriate medium overnight (O/N) in aerobic conditions (37° C. with 220 rpm shaking), next day a 1:100 inoculum in Mueller-Hinton broth (MHB) was incubated in aerobic conditions for 3 hr (OD=0.08-0.1) and an inoculum of 1:300 dilution, corresponding to 3×10^5 CFU/ml, was incubated in presence or absence of different concentrations of Triafluocyl in 1% DMSO. After O/N growth the OD of each culture was measured at 600 nm in a spectrophotometer (OD600). The MIC represents the concentration at which there is no visible growth of bacteria, i.e. ΔOD at 600 nm equal to zero (blank is the medium alone). MIC for Triafluocyl against S. aureus ATCC 25904, ATCC 6538, methilcillin-resistant S. aureus (MRSA) ATCC BAA-1556, Glycopeptide intermediate-resistant (GISA), and S. aureus Mu-50 (ATCC 700695) were 20, 20, 15, and 20 μg/ml, respectively.
(§5) The Minimal Inhibitory Concentration (MIC) and the Minimal Bactericidal Concentration (MBC) of Fluometacyl were determined on several gram-positive strains (Table 2) following EUCAST (European Committee on Antimicrobial susceptibility Testing) recommendations.
(§6) For MIC determination a single colony was resuspended and cultured in the appropriate bacteria-specific medium (TSB: Tryptic Soy Broth for S. aureus atcc 25904 and S. epidermidis and BHI: brain-heart infusion medium for all the other strains) overnight (O/N) in aerobic conditions (37° C. with 220 rpm shaking), next day a 1:100 inoculum was incubated in Mueller-Hinton broth (MHB) in aerobic conditions for 3 hr (OD600=0.08-0.1). A further inoculum, 1:300 dilution of the MHB culture, corresponding to 3×10^5 CFU/ml, was grown in presence or absence of different concentrations of Fluometacyl, 1% DMSO in MHB for 20 hr.

[2] = test system: methilcillin-resistant S. aureus (MRSA) ATCC BAA-1556; assay: MIC determination (EUCAST, Mueller-Hinton broth); conditions: Staphylococcus aureus
Protocol: as §3, §4, §5, §6

[3] = test system: Glycopeptide intermediate-resistant (GISA) S. aureus Mu-50 (ATCC 700695); assay: MIC determination (EUCAST, Mueller-Hinton broth); conditions: Staphylococcus aureus, ATCC700695
Protocol: as §3, §4, §5, §6

MIC [1] [µg/mL]	MIC (S. aureus ATCC 25904)	MIC [2]	MIC ([3]; S. aureus MU50 GISA) [µM]	MIC ([3]; S. aureus Mu50 GISA) [µg/mL]	Compound	inhibition of Escherichia coli growth [1]
5	30 to 38 µM	20 to 30 µM	30 to 38	–	CCCSc1nc(N[C@@H]2C[C@H]2c2ccc(F)c(F)c2)c2nnn([C@@H]3C[C@H](O)[C@@H](O)[C@H]3O)c2n1 [Fluometacyl, (1S,2R,3S,4R)-4-[7-[[(1R,2S)-2-(3,4-Difluorophenyl)cyclopropyl]amino]-5-(propylthio)-3H-1,2,3-triazolo[4,5-d]pyrimidin-3-yl]-1,2,3-cyclopentanetriol]	unable to inhibit E. coli growth
5	20 µg/mL	15 µg/mL	–	20	CCCSc1nc(N[C@@H]2C[C@H]2c2ccc(F)c(F)c2)c2nnn([C@@H]3C[C@H](OCCO)[C@@H](O)[C@H]3O)c2n1 [Triafluocyl, (1S,2S,3R,5S)-3-[7-[(1R,2S)-2-(3,4-difluorophenyl)cyclopropylamino]-5-(propylthio)-3H-[1,2,3]-triazolo[4,5-d]pyrimidin-3-yl]-5-(2-hydroxyethoxy)-1,2-cyclopentanediol]	unable to inhibit Escherichia coli growth
